Assay results: patent publication US9556232B2, “Anti-angiogenic molecules, nanostructures and uses thereof” (Northwestern University, priority 2013, dated 2017)
Entries after “also recorded” stand apart in the source; their conditions may differ.

Legend:
HUVECs [1] = assay: Assay of angiogenesis in vitro by tube formation; format: cell-based, human; details: HUVECs on matrigel, imaged 5 hrs after addition of treatment
Protocol: Assay of Angiogenesis In Vitro by Tube Formation.
Wells of a 96-well plate were coated with ECMatrix solution, and 5×10^3 HUVECs were plated in triplicate wells in a volume of 50 μL of endothelial growth medium (EGM) containing 0.5% FBS with 50 ng/mL bFGF for 2 hours. MMPA, MMPep, ScramPA treatments at respective dosages were added to the wells for 5 hours. Tube formation was evaluated by phase-contrast microscopy using an Olympus IX-70 microscope (100× magnification) connected to a Diagnostic Instruments Spot RT Camera. Experiments were repeated independently three times.

[2] = system: chicken chorioallantoic membrane (CAM); assay: Characterization of angiogenesis in vivo by CAM assay; details: 1 mM in PBS from filter paper circles, embryonic day 5, 21 hrs and 42 hrs
Protocol: Characterization of Angiogenesis In Vivo by CAM Assay.
In vivo assessment of the anti-angiogenic potential of PAs and peptide was performed using the chicken chorioallantoic membrane (CAM). In this well-established CAM assay, angiogenesis of the extraembryonic allantois was measured at several time points after treatment with PAs or peptide. Fertilized chicken eggs (Sunnyside Hatchery) were received and cultured in a temperature controlled, humidified egg incubator. On embryonic day 3, eggs were cracked into 100 mm sterile petri dishes without breaking the yolk sac and were transferred to a water-jacketed humidified CO2 incubator set to 37° C. On embryonic day 5, 5 μL of treatment (PA, peptide, or scrambled PA dissolved in PBS at 1 mM) or control (PBS) solutions were deposited onto autoclaved filter paper circles ¼″ in diameter. Solution-soaked filter paper circles were placed on top of the CAM and digital images were captured using a Nikon stereomicroscope. Vessel density was quantified by counting the number of vessels intersecting the circumference of filter paper circles and is expressed relative to the initial time point. ANOVA with a Dunnett's Multiple Comparisons post-test of each treatment condition against control was performed using GraphPad Prism software. A minimum of n=5 samples was analyzed for each treatment condition at each time point.

HUVECs [3] = assay: Flow cytometry and confocal microscopy to assess PA binding to HUVECs; format: cell-based, human
Protocol: Flow Cytometry and Confocal Microscopy to Assess PA Binding.
Stock fluorescent PA and peptide solutions were made by dissolving FITC-labeled molecules in PBS at a concentration of 200 μM (assuming peptide content of 90%). Stock fluorescent solutions were then mixed in equal volumes with 1 mM stock solutions of non-fluorescent PA or peptide solution and allowed to sit overnight at room temperature to make working solutions. Subconfluent human umbilical vein endothelial cells (HUVECs) were incubated for 2 hr in starvation media before detaching with 0.05% trypsin/EDTA. Cells were then spun down to remove trypsin/EDTA and were re-suspended in starvation media at 250,000/mL. Working peptide and PA solutions then added to cell suspensions such that the final concentration corresponded to 10 μM non-fluorescent molecule. After incubating at 37° C. for 30 mins, cells were spun down and resuspended in Hank's balanced salt solution (HBSS) twice. Fluorescence signal of each cell was quantified using a LSRFortessa cell analyzer (BD Biosciences). Cells were also plated on poly-d-lysine coated glass coverslips, fixed with 4% paraformaldehyde, and embedded in mounting media for imaging using an AIR laser scanning confocal microscope (Nikon). Machine parameters were kept constant for all samples in both confocal microscopy and flow cytometry experiments.

[4] = Critical assembly concentration determination by nile red incorporation; format: physicochemical; details: in PBS, nile red blueshift in peak emission
Protocol: Critical Assembly Concentration Determination by Nile Red Incorporation.
MMPA, MMPep, or ScramPA solutions ranging from 100 nM to 200 μM concentration in PBS were made from stock solutions and NR dissolved in ethanol was diluted 200-fold into solutions to a final concentration of 500 nM. Using a NanoLogHJ spectrofluorometer, samples were excited at 550 nm and spectra were obtained between from 580 nm-750 nm. Blueshift was plotted against concentration to determine the critical assembly concentration.

HUVECs [5] = assay: Assessment of cell migration on fibronectin (live-cell imaging); format: cell-based, human; details: HUVECs on FN-coated glass, bFGF stimulus, 10 μM
Protocol: Assessment of Cell Migration on Fibronectin.
Fibronectin from human plasma was coated onto tissue culture-treated 4-chamber glass-bottom petri dishes (In Vitro Scientific) at 7 μg/cm2 as previously described. Subconfluent HUVECs were incubated for 2 hr in starvation media before detaching with 0.05% trypsin/EDTA. Cells were then spun down to remove trypsin/EDTA, re-suspended in starvation media, and plated onto glass-bottom petri dishes at a concentration of 4000 cells per chamber. After cells attached (approximately 1 hr at 37° C.)., the media was aspirated and replaced with starvation media containing […] basic fibroblast growth factor (bFGF) and 10 μM MMPA, MMPep, or Scram PA. Live-cell imaging was performed on a Nikon BioStation IM at 37° C., and cell migration was quantified manually using a plugin to track the location of the cell nucleus every 30 mins in ImageJ software. ANOVA with a Dunnett's Multiple Comparisons post-test of each treatment condition against control was performed using GraphPad Prism software. For control, MMPA, MMPep, and ScramPA, n=56, 54, 31, and 42 respectively.

HUVECs [6] = assay: Assessment of cell adhesion on fibronectin (PicoGreen); format: cell-based, human; details: concentration not given
Protocol: Assessment of Cell Adhesion on Fibronectin.
The effect of peptide and PAs on HUVEC adhesion was assessed. Fibronectin from human plasma (Sigma) was dissolved in sterile MilliQ water and was added to tissue culture-treated 96 well plates at 5 μg/cm2, which were then left to dry overnight at room temperature in a sterile laminar flow hood. Coated plates were stored at 4° C. and warmed to 37° C. prior to use. Subconfluent HUVECs were incubated for 2 hr in starvation media (EndoGRO basal media from Millipore supplemented with 0.5% fetal bovine serum and 1× penicillin-streptomycin from Gibco) before detaching with 0.05% trypsin/EDTA. Cells were then spun down to remove trypsin/EDTA and were re-suspended in PBS containing peptide or PA molecules. Cells were incubated in treatment for 30 min at 37° C. and then plated at 15,000 cells/well. After 45 mins, wells were washed once with PBS to detach loosely adhered cells. A PicoGreen assay (Invitrogen) was used to quantify number of cells in each well. Cell counts were normalized to that obtained in wells with no treatment. Statistical analysis was performed in GraphPad Prism software using one-way analysis of variance (ANOVA) with a Bonferroni's Multiple Comparisons post-test comparing all pairs of columns. For all treatment groups, n=4.

Substance: MMPep: 15-residue peptide: maspin g-helix sequence plus two residues on either end, EDESTGLEKIEKQLN, synthesized as previously reported [reference compound]
- inhibition of tube formation (HUVECs [1]): slightly effective at greater than 10 μM; also recorded: partially inhibited tube formation at higher concentrations (10 μM)
- angiogenesis in CAM (vessels intersecting filter paper circumference, normalized to initial count) vs PBS control [2]: present but is statistically insignificant
- median FITC intensity per cell (HUVECs [3]; FACS, HUVECs, FITC-labeled molecule mixed with non-fluorescent molecule, 10 μM, 30 mins 37° C.): 2.6 times that of untreated control
- cell binding (FACS, HUVEC fluorescence) (HUVECs [3]; HUVECs treated with FITC-labeled PAs and peptide): binds to cells significantly less effectively than PA nanostructures
- critical aggregation assembly concentration (CAC) [4]: > 200 µM
- cell motility / migration vs PBS control (HUVECs [5]): statistically less migratory (P<0.05); also recorded: significantly decrease cell motility over untreated controls
- average cell migration speed (HUVECs [5]; measured over at least 2 hrs and up to 8 hrs): 0.30 μm/min
- HUVEC adhesion to FN surface vs untreated controls (HUVECs [6]): do not show this effect; also recorded: unable to improve cell adhesion over untreated controls
